Measured values from patent US9642861B2, “Methods of treating oral mucositis” (priority 2006, dated 2017).
Where “and” joins values, the source holds several entries; their conditions need not be identical. Equal values may be shown once.

Test system: oral mucositis induced in hamsters by acute radiation (40 Gy to left buccal cheek pouch)
Assay: ACT-03 (Example 2): acute radiation model of oral mucositis in hamsters, mucositis scoring
Assay type: in vivo, Syrian Golden Hamsters
Set-up: key to Mucositis score / Mucositis Scores: 0: Pouch completely healthy. No erythema or vasodilation.; 1: Light to severe erythema and vasodilation. No erosion of mucosa.; 2: Severe erythema and vasodilation. Erosion of superficial aspects of mucosa leaving denuded areas. Decreased stippling of mucosa.; 3: Formation of off-white ulcers in one or more places. Ulcers may have a yellow/gray due to pseudomembrane. Cumulative size of ulcers should equal about ¼ of the pouch. Severe erythema and vasodilation.; 4: Cumulative seize of ulcers should equal about ½ of the pouch. Loss of pliability. Severe erythema and vasodilation.; 5: Virtually all of pouch is ulcerated. Loss of pliability (pouch can only partially be extracted from mouth); peak mean mucositis score: scale not given here
Conditions: for Mucositis Scores: first study, single animal, blinded scorer; for Mucositis score: individual animal, 2 blinded scorers
Source text: The acute radiation model in hamsters, developed by the Principal Investigator, has proven to be an accurate, efficient and cost-effective technique to provide a preliminary evaluation of anti-mucositis compounds (9). The course of mucositis in this model is well defined and results in peak scores approximately 14-16 Days following radiation. The acute model has little systemic toxicity, resulting in few hamster deaths, thus permitting the use of smaller groups (N=7-8) for initial efficacy studies. It has also been used to study specific mechanistic elements in the pathogenesis of mucositis. Molecules that show efficacy in the acute radiation model may be further evaluated in the more complex models of fractionated radiation, chemotherapy, or concomitant therapy.
In this study, an acute radiation dose of 40 Gy on day 0 was administered locally to the cheek pouch. Clinically significant mucositis was observed on days 12 through 28.
Seventy-two male Syrian Golden Hamsters were divided randomly into 9 groups of 8 animals and given an acute radiation dose of 40 Gy directed to their left buccal cheek pouch. This was accomplished by anesthetizing the animals and everting the left buccal pouch, while protecting the rest of the animal with a lead shield. […] Mucositis was evaluated clinically starting on Day 6, and continued on alternate days until day 28.
The grade of mucositis was scored, beginning on day 6, and for every second day thereafter, through and including day 28 (for scoring scheme, see Table 6 and FIG. 8). The effect on mucositis of each drug treatment compared to ip vehicle-treated controls was assessed according to the following parameters:
The difference in the number of days hamsters in each group have ulcerative (score≧3) mucositis.
On each evaluation day, the number of animals with a blinded mucositis score of ≧3 in each drug treatment group was compared to the vehicle-treated control group. Differences were compared on a cumulative basis and statistical significance was determined by chi-square analysis. Efficacy, in this analysis, is defined as a significant reduction in the number of days that a group of animals had ulcerations (scores≧3) when compared to the control group.
For each evaluation day the scores of the control group were compared to those of the treated groups using non-parametric rank sum analysis. Treatment success was considered as a statistically significant lowering of scores in the treated group on 2 or more days from day 6 to day 28.
All seventy-two (72) male Syrian Golden Hamsters were given an acute radiation dose of 40 Gy directed to their left buccal cheek pouch. This was accomplished by anesthetizing the animals and everting the left buccal pouch, while protecting the rest of the animal with a lead shield. […] Mucositis was evaluated clinically starting on day 6, and continuing on alternate days until day 28. The study timeline is depicted in FIG. 7. Dose levels were determined based on the results of a previous acute toxicity study (data not published), and in the prior mucositis study of Example 1, shown in Table 5.
Mucositis was induced using a standardized acute radiation protocol. A single dose of radiation (40 Gy/dose) was administered to all animals on day 0. Radiation was generated with a 250 kilovolt potential (15-ma) source at a focal distance of 50 cm, hardened with a 0.35 mm Cu filtration system. Irradiation targeted the left buccal pouch mucosa at a rate of 3.2 Gy/minute. Prior to irradiation, animals were anesthetized with an intra-peritoneal injection of Ketamine (160 mg/kg) and Xylazine (8 mg/kg). The left buccal pouch was everted, fixed and isolated using a lead shield.
The mucositis score, weight change and survival were measured throughout the study as described above. For the evaluation of mucositis, the animals were anesthetized with isoflurane and the left pouch everted. […]

[1] = group 2: ip 30 mg/kg once daily day −1 to 3
[2] = group 2: ip 30 mg/kg qd day −1 to 3
[3] = group 3: ip 3 mg/kg bid day −1 to 3
[4] = group 4: ip 10 mg/kg bid day −1 to 3
[5] = group 4: ip 10 mg/kg twice daily day −1 to 3
[6] = group 5: ip 30 mg/kg bid day −1 to 3
[7] = group 5: ip 30 mg/kg twice daily day −1 to 3
[8] = group 6: ip 30 mg/kg once daily day 0 to 3
[9] = group 6: ip 30 mg/kg qd day 0 to 3
[10] = group 7: ip 30 mg/kg bid day 0 to 3
[11] = group 7: ip 30 mg/kg twice daily day 0 to 3
[12] = group 8: ip 30 mg/kg twice daily on day 0
[13] = group 9: ip 30 mg/kg bid day 0 & 7

In the case of `[Cl-].[Cl-].[Mn+2].c1cc2nc(c1)CN[C@@H]1CCCC[C@H]1NCCN[C@@H]1CCCC[C@H]1NC2` [M40403], the “Mucositis Scores” value (Group 8: 30 mg/kg/dose twice daily on day 0, day 6, 30 mg/kg) is reported as 0 (4×) and 1 (2×), the “Mucositis Scores” value (Group 8: 30 mg/kg/dose twice daily on day 0, day 8) is reported as 0 and the “Mucositis Scores” value (Group 8: 30 mg/kg/dose twice daily on day 0, day 10, 30 mg/kg) is reported as 0 (3×) and 1 (3×). For the same compound, the “Mucositis Scores” value (Group 8: 30 mg/kg/dose twice daily on day 0, day 12, 30 mg/kg) was 2 (5×) and 1, the “Mucositis Scores” value (Group 8: 30 mg/kg/dose twice daily on day 0, day 14, 30 mg/kg) was 3 (4×) and 2 (2×) and the “Mucositis Scores” value (Group 8: 30 mg/kg/dose twice daily on day 0, day 16, 30 mg/kg) was 2 (4×) and 3 (2×). For the same compound, the “Mucositis Scores” value (Group 8: 30 mg/kg/dose twice daily on day 0, day 18, 30 mg/kg) was 1 (3×) and 2 and 3 (2×), the “Mucositis Scores” value (Group 8: 30 mg/kg/dose twice daily on day 0, day 20, 30 mg/kg) was 2 (2×) and 1 (2×) and 3 (2×) and the “Mucositis Scores” value (Group 8: 30 mg/kg/dose twice daily on day 0, day 22) was 2. The “Mucositis Scores” value (Group 8: 30 mg/kg/dose twice daily on day 0, day 24, 30 mg/kg) was 0 (3×) and 2 (2×) and 1, the “Mucositis Scores” value (Group 8: 30 mg/kg/dose twice daily on day 0, day 26, 30 mg/kg) was 1 (2×) and 0 (3×) and 2 and the “Mucositis Scores” value (Group 8: 30 mg/kg/dose twice daily on day 0, day 28, 30 mg/kg) was 0 (3×) and 1 (3×). The “Mucositis Scores” value (Group 9: 30 mg/kg/dose twice daily on day 0 and on day 7, day 6, 30 mg/kg) was 0 and 1, the “Mucositis Scores” value (Group 9: 30 mg/kg/dose twice daily on day 0 and on day 7, day 8, 30 mg/kg) was 0 and the “Mucositis Scores” value (Group 9: 30 mg/kg/dose twice daily on day 0 and on day 7, day 10, 30 mg/kg) was 1 and 0. For the same compound, the “Mucositis Scores” value (Group 9: 30 mg/kg/dose twice daily on day 0 and on day 7, day 12, 30 mg/kg) was 2, the “Mucositis Scores” value (Group 9: 30 mg/kg/dose twice daily on day 0 and on day 7, day 14, 30 mg/kg) was 2 and the “Mucositis Scores” value (Group 9: 30 mg/kg/dose twice daily on day 0 and on day 7, day 16, 30 mg/kg) was 3. For the same compound, the “Mucositis Scores” value (Group 9: 30 mg/kg/dose twice daily on day 0 and on day 7, day 18, 30 mg/kg) was 3, the “Mucositis Scores” value (Group 9: 30 mg/kg/dose twice daily on day 0 and on day 7, day 20, 30 mg/kg) was 2 and the “Mucositis Scores” value (Group 9: 30 mg/kg/dose twice daily on day 0 and on day 7, day 22, 30 mg/kg) was 2 (2×) and 0. For the same compound, the “Mucositis Scores” value (Group 9: 30 mg/kg/dose twice daily on day 0 and on day 7, day 24, 30 mg/kg) was 0 and 1 (2×), the “Mucositis Scores” value (Group 9: 30 mg/kg/dose twice daily on day 0 and on day 7, day 26, 30 mg/kg) was 2 and 1 (2×) and the “Mucositis Scores” value (Group 9: 30 mg/kg/dose twice daily on day 0 and on day 7, day 28, 30 mg/kg) was 1 and 2 and 0. The “day of peak mean mucositis score” value [1] was 16 days, the “peak mean mucositis score” value [1] was 2.8 and the “Chi Sq v control, days with mucositis score >=3” value (“Chi Sq v control, days” for short) [2] was 4.4860. For the same compound, the “Days <3 (animal days with a mucositis score below 3)” value [2] was 108, the “Days >=3 (animal days with a mucositis score of three or more)” value [2] was 36 and the “% Days >=3 (percentage of animal days with a mucositis score of 3 or higher)” value (group 2: ip 30 mg/kg qd day −1 to 3, 30 mg/kg) was 25%. The “Chi Sq v control, days” value [3] was 5.3950, the “Days <3 (animal days with a mucositis score below 3)” value [3] was 144 and the “Days >=3 (animal days with a mucositis score of three or more)” value [3] was 48. For the same compound, the “% Days >=3 (percentage of animal days with a mucositis score of 3 or higher)” value (group 3: ip 3 mg/kg bid day −1 to 3, 3 mg/kg) was 25%, the “peak mean mucositis score” value (group 3: ip 3 mg/kg twice daily day −1 to 3) was 2.9 and the “Chi Sq v control, days” value [4] was 1.1996. For the same compound, the “Days <3 (animal days with a mucositis score below 3)” value [4] was 136, the “Days >=3 (animal days with a mucositis score of three or more)” value [4] was 56 and the “% Days >=3 (percentage of animal days with a mucositis score of 3 or higher)” value (group 4: ip 10 mg/kg bid day −1 to 3, 10 mg/kg) was 29.2% and 29.17%. For the same compound, the “day of peak mean mucositis score” value [5] was 16 days, the “peak mean mucositis score” value [5] was 3.0 and the “Chi Sq v control, days” value [6] was 7.229. For the same compound, the “Days <3 (animal days with a mucositis score below 3)” value [6] was 112, the “Days >=3 (animal days with a mucositis score of three or more)” value [6] was 32 and the “% Days >=3 (percentage of animal days with a mucositis score of 3 or higher)” value (group 5: ip 30 mg/kg bid day −1 to 3, 30 mg/kg) was 22.2% and 22.22%. The “day of peak mean mucositis score” value [7] was 16 days, the “peak mean mucositis score” value [7] was 2.8 and the Mucositis score (group 6, day 6) was 1 and 0 (4×). The Mucositis score (group 6, day 8) was 0 (4×) and 1, the Mucositis score (group 6, day 10) was 0 (4×) and 1 and the Mucositis score (group 6, day 12) was 2 (4×) and 0. For the same compound, the Mucositis score (group 6, day 14) was 2 (3×) and 3 (2×), the Mucositis score (group 6, day 16) was 4 and 3 (4×) and the Mucositis score (group 6, day 18) was 4 and 3 (2×) and 2 (2×). For the same compound, the Mucositis score (group 6, day 20) was 4 and 3 (2×) and 2 (2×), the Mucositis score (group 6, day 22) was 4 and 2 (2×) and 0 and 1 and the Mucositis score (group 6, day 24) was 4 and 2 (4×). The Mucositis score (group 6, day 26) was 3 and 2 (3×) and 1, the Mucositis score (group 6, day 28) was 2 (2×) and 0 and 1 (2×) and the “day of peak mean mucositis score” value [8] was 16 days. The “peak mean mucositis score” value [8] was 3.2, the “Chi Sq v control, days” value [9] was 1.029 and the “Days <3 (animal days with a mucositis score below 3)” value [9] was 100. For the same compound, the “Days >=3 (animal days with a mucositis score of three or more)” value [9] was 44, the “% Days >=3 (percentage of animal days with a mucositis score of 3 or higher)” value (group 6: ip 30 mg/kg qd day 0 to 3, 30 mg/kg) was 30.6% and 30.56% and the Mucositis score (group 7, day 6) was 0. The Mucositis score (group 7, day 8) was 0 (2×) and 1, the Mucositis score (group 7, day 10) was 1 and 0 (2×) and the Mucositis score (group 7, day 12) was 2. For the same compound, the Mucositis score (group 7, day 14) was 2, the Mucositis score (group 7, day 16) was 1 (2×) and 2 and the Mucositis score (group 7, day 18) was 1 and 0 and 3. The Mucositis score (group 7, day 20) was 1 (2×) and 0, the Mucositis score (group 7, day 22) was 0 and 1 (2×) and 2 and the Mucositis score (group 7, day 24) was 1 (2×) and 0 (2×). For the same compound, the Mucositis score (group 7, day 26) was 1 (3×) and 0, the Mucositis score (group 7, day 28) was 1 (3×) and 0 and the “Chi Sq v control, days” value [10] was 38.3440. The “Days <3 (animal days with a mucositis score below 3)” value [10] was 174, the “Days >=3 (animal days with a mucositis score of three or more)” value [10] was 18 and the “% Days >=3 (percentage of animal days with a mucositis score of 3 or higher)” value (group 7: ip 30 mg/kg bid day 0 to 3, 30 mg/kg) was 9.4% and 9.38%. The “day of peak mean mucositis score” value [11] was 16 days, the “peak mean mucositis score” value [11] was 2.2 and the “Chi Sq v control, days” value (group 8: ip 30 mg/kg bid day 0) was 25.681. The “Days <3 (animal days with a mucositis score below 3)” value (group 8: ip 30 mg/kg bid day 0) was 166, the “Days >=3 (animal days with a mucositis score of three or more)” value (group 8: ip 30 mg/kg bid day 0) was 26 and the “% Days >=3 (percentage of animal days with a mucositis score of 3 or higher)” value (group 8: ip 30 mg/kg bid day 0, 30 mg/kg) was 13.5% and 13.54%. For the same compound, the “day of peak mean mucositis score” value [12] was 14 days, the “peak mean mucositis score” value [12] was 2.4 and the “Chi Sq v control, days” value [13] was 19.113. For the same compound, the “Days <3 (animal days with a mucositis score below 3)” value [13] was 142, the “Days >=3 (animal days with a mucositis score of three or more)” value [13] was 26 and the “% Days >=3 (percentage of animal days with a mucositis score of 3 or higher)” value (group 9: ip 30 mg/kg bid day 0 & 7, 30 mg/kg) was 15.5% and 15.48%. For the same compound, the “peak mean mucositis score” value (group 9: ip 30 mg/kg twice daily on day 0 and day 7) was 2.4.
